Laboratory results taken from US10239889B1, “Pentacyclic compound” (Eisai R&D Management Co., Ltd., priority 2017, dated 2019).

Legend:
[1] = system: rat primary septal neuron culture; test: Measurement of acetylcholine (ACh) release in the rat primary septal neuron culture system in the presence of NGF; assay type: cell-based; conditions: rat primary septal neurons, with NGF, one day after compound addition, ACh by HPLC
Description: Measurement of acetylcholine (ACh) release in the rat primary septal neuron culture system in the presence of NGF
(1) Rat Primary Septal Neuron Culture
The septal area was isolated from Sprague-Dawley (SD) rats (Charles River Laboratories Japan, Inc.) at a fetal age of 18 days, and cultured.
Specifically, fetuses were aseptically removed from pregnant rats under isoflurane anesthesia. The brain was extracted from each fetus, and immersed in ice-cooled L-15 medium (11415-064, Thermo Fisher Scientific). The septal area was dissected from the extracted brain under a stereoscopic microscope. The dissected septal area was subjected to enzyme treatment in an enzyme solution containing 0.25% trypsin (15050-065, Thermo Fisher Scientific) and 0.01% DNase (D5025-150KU, Sigma) at 37° C. for 30 minutes, thereby dispersing the cells. In this case, the enzyme reaction was terminated by adding inactivated horse serum (26050-088, Thermo Fisher Scientific). The enzyme-treated solution was centrifuged at 1000 rpm for 3 minutes, and the supernatant was removed. A medium in an amount of 10 mL was added to the obtained cell mass. The medium used was Dulbecco's Modified Eagle's Medium (044-29765, WAKO) supplemented with N2 supplement (17502-048, Thermo Fisher Scientific), 1 mM sodium pyruvate (11360-070, Thermo Fisher Scientific), and Penicillin-Streptomycin (15140-1221, Thermo Fisher Scientific). The cells of the cell mass to which the medium was added were redispersed by gentle pipetting, and then centrifuged again at 1000 rpm for 3 minutes, and the supernatant was removed. The medium in an amount of 10 mL was added to the obtained cell mass, and the cell dispersion was filtered through a 40-μm nylon mesh (Cell Strainer) to remove the cell mass, thereby obtaining a neuronal cell suspension. The neuronal cell suspension was diluted with the medium, and 10% inactivated bovine serum (26140-079, Thermo Fisher Scientific) and 10% inactivated horse serum were added. Thereafter, 100 μL/well of the suspension was seeded in a 96-well plate (354461, CORNING) pre-coated with poly-D-lysine so that the initial culture density was 1.4×10^5 cells/cm^2. After the seeded cells were cultured under 5% CO2-95% air in a 37° C. incubator for 2 days, the entire medium was replaced with 120 μL of fresh medium, and the cells were subsequently cultured for 5 days.
On the 7th day of culture, compound was added in the following manner. A solution of the test compound in DMSO was diluted with the medium so that the concentration was 10 times higher than the final concentration. NGF (450-01, PEPRO TECH, INC.) was prepared at 0.3 ng/mL. These two solutions were added each in an amount of 15 μL/well, and the mixture was mixed well. The final DMSO concentration was 0.1% or less. Moreover, only DMSO and NGF were added to the control group.
(3) ACh Release Measurement
One day after compound addition, an amount of ACh release was measured by HPLC in the following manner. A warmed buffer was added at 100 μL/well to the well after the medium was eliminated, and the buffer was immediately removed. Thereafter, a buffer to which 10 μm choline, 10 μm physostigmine, and 6 mM KCl were added was added at 120 μL/well. The buffer was prepared by adding 125 mM NaCl, 25 mM 4-(2-hydroxyethyl)-1-piperazineethanesulfonic acid, 1.2 mM KH2PO4, 1.2 mM MgSO4, 2.2 mM CaCl2 (2H2O), and 10 mM glucose to sterilized water, and the final pH of the solution was set to 7.4. After the 96-well plate to which the buffer was added was incubated under 5% CO2-95% air in a 37° C. incubator for 40 minutes, 80 μL of buffer was collected. An internal standard solution IPHC (5×10^−7 M) was added in an amount of 6 μL to the collected buffer, and the buffer was transferred to a tube for HPLC measurement and subjected to HPLC measurement. […]

[2] = system: Choline Acetyltransferase (ChAT) mRNA; test: Measurement of choline acetyltransferase (ChAT) mRNA expression levels in the rat septal area; assay type: in vivo; conditions: SD rat medial septum, 24 hours after administration, qPCR
Method: Measurement of Choline Acetyltransferase (ChAT) mRNA Expression Levels in the Rat Septal Area
(1) Compound Administration
In this study, SD male rats (Charles River Laboratories Japan, Inc.) with a body weight of about 250 to 350 g were used. The compound was dissolved in 0.01 mol/L hydrochloric acid, and orally administered.
At 24 hours after the administration of the compound, the whole brain tissue was collected under pentobarbital anesthesia. The medial septum was isolated from whole brain on ice and frozen with liquid nitrogen, and then stored at −80° C.
(3) Measurement of ChAT mRNA Expression Levels
For RNA purification, RNeasy Plus Mini Kit (#74136: QIAGEN) was used in this study. RNA purification was performed by the method described in the kit. After RNA purification, the total RNA concentration was measured by using QIAxpert Instrument (QIAGEN). cDNA was synthesized using SuperScript® VILO™ cDNA Synthesis Kit (#11754: Thermo Fisher Scientific). The synthesis of cDNA was performed by the method described in the kit. The synthesized cDNA was diluted 4 times with RNase free water, and the diluted cDNA solution was used as a sample. Taqman Universal PCR Master Mix (#4304437: Thermo Fisher Scientific), Taqman® Gene Expression Assays, INVENTORIED (#4331182: Thermo Fisher Scientific), RNase free water, and the cDNA solution were mixed in amounts of 10 μl, 1 μl, 4 μl, and 5 μl, respectively, and the resulting mixture was used as a measurement sample solution. Quantitative polymerase chain reaction (qPCR) was conducted using ABI PRISM® 7900HT (Thermo Fisher Scientific) by a fluorescence probe method. Analysis was performed by SDS 2.4 (Thermo Fisher Scientific). The results were calculated by the percentage of the amount of ChAT mRNA expression levels in the compound administration group increased from the amount of ChAT mRNA expression levels in the vehicle administration group.

Structure (SMILES) | Concentration (μM) showing a 20% or more increase from the amount of ACh in the control group [1] | Amount (%) increased from the amount of ChAT mRNA expression levels in the vehicle administration group ([2]; oral 3 mg/kg) | Amount (%) increased from the amount of ChAT mRNA expression levels in the vehicle administration group ([2]; oral 10 mg/kg)
CN1CCc2c(sc3nc4n(c(=O)c23)-c2ccsc2C(=O)N(C)C4)C1 [Example 2, 5,10-dimethyl-5,6,9,10,11,12-hexahydropyrido[4″,3″:4′,5′]thieno[2′,3′:4,5]pyrimido[1,2-a]thieno[2,3-f][1,4]diazepine-4,13-dione] | 0.1 µM | 38.0% | 
CN1CCc2c(sc3nc4n(c(=O)c23)[C@@H]2CCC[C@@H]2C(=O)N(C)C4)C1 [Example 4, (3aS,14aR)-5,10-dimethyl-3,3a,5,6,9,10,11,12-octahydro-1H-cyclopenta[f]pyrido[4″,3″:4′,5′]thieno[2′,3′:4,5]pyrimido[1,2-a][1,4]diazepine-4,13(2H,14aH)-dione] | 0.1 µM |  | 42.4%
CN1CCc2c(sc3nc4n(c(=O)c23)[C@@H]2CCC[C@H]2C(=O)N(C)C4)C1 [Example 5, (3aR,14aR)-5,10-dimethyl-3,3a,5,6,9,10,11,12-octahydro-1H-cyclopenta[f]pyrido[4″,3″:4′ 5′]thieno[2′,3′:4,5]pyrimido[1,2-a][1,4]diazepine-4,13(2H,14aH)-dione] | 0.1 µM | 33.6% | 
CN1CCc2c(sc3nc4n(c(=O)c23)[C@H]2CCC[C@@H]2C(=O)N(C)C4)C1 [Example 6, (3aS,14aS)-5,10-dimethyl-3,3a,5,6,9,10,11,12-octahydro-H-cyclopenta[f]pyrido[4″,3″:4′,5′]thieno[2′,3′:4,5]pyrimido[1,2-a][1,4]diazepine-4,13(2H,14aH)-dione] | 0.03 µM |  | 32.0%
